The record followed here is patent US10722441B2, “Noreugenin glycoside derivatives” (Universitaet Hamburg, priority 2016, dated 2020).

The assay concerns reconstituted human epidermis with melanocytes of phototype II. The assay is described as follows: Tanning properties in reconstituted human epidermis with melanocytes; semiquantification of melanin content by Fontana-Masson staining and image analysis. It counts as cell-based. Conditions: for Change of melanin content / pigmentation, in words: IBMX 100 μM vs untreated controls. As to the method: The epidermis with melanocytes of phototype II is reconstituted in an air/liquid interface system (directly at the air-liquid interface) in a culture medium from day 0 to day 4 for a complete differentiation. The culture is then continued from day 4 to day 14 in this same medium but without bovine pituitary extract (BPE). The test preparations were administered in the […] from day 4 to day 14. The medium and the test preparations are each added on day 4, day 7 and day 11. DMSO and THF are tested in parallel and IBMX (100 μM) is used as the positive reference.
After embedding in paraffin, a Fontana-Masson staining of the tissue sections is performed. The microscope slides are covered with a special medium and examined using a light microscope of the Leica DM2000 type with a digital camera. After staining, images are recorded and a quantification is performed by image analysis (on the basis of 12 images). For quantification of the melanin content in each image, the Leica QWin3 software is used. Two measurements are carried out. The first measurement gives the total intensity of the coloration, i.e., a lighter or darker melanin is reflected. The second measurement relates to the marked image area, i.e., the area of the epidermis containing the melanin. In these measurements all cell layers except the stratum corneum are included.
The procedure used was the same as that carried out in example 1 and 2. After determining the cytotoxic concentrations, substance (Ia) is tested at 8 μM, substance (Ib) at 40 μM (solvent: 0.1% THF) and substance (IIa) at 20 μM (solvent: 0.1% DMSO).
After determining the cytotoxic concentrations of these substances, substance (Ib) is tested at 40 μM in DMSO (0.1%), substance (IIa) is tested at 20 μM in DMSO (0.1%), the mixture of (Ib)/(IIa) is tested at 40/20 μM in DMSO (0.1% and rhamnose is tested at 40 μM in THF (0.2%).

The mark [1] stands for this setting: first experiment, Ia 8 μM, Ib 40 μM vs THF, IIa 20 μM vs DMSO.
Where [2] appears, read: second experiment, Ib 40 μM and IIa 20 μM vs DMSO, mixture 40/20 μM, rhamnose 40 μM.

Structures are written as SMILES.

Take `Cc1cc(=O)c2c(O[C@@H]3O[C@@H](C)[C@H](O)[C@@H](O)[C@H]3O)cc(O)cc2o1` [Substance (IIa), 5-[(6-deoxy-α-L-mannopyranosyl)oxy]-7-hydroxy-2-methyl-4H-1-benzopyran-4-one]: the “Quantification after Fontana-Masson staining, relative to the untreated controls” value is 143% (p < 0.05) (first experiment, 20 μM, solvent 0.1% DMSO, day 4 to day 14) and 147% (p < 0.05) (second experiment, 20 μM in DMSO (0.1%)). Further, the “Change of melanin content / pigmentation, in words” value by setting is: under setting [1], “significant increase”; under setting [2], “significant increase”.

Consider `CC(C)Cn1c(=O)n(C)c(=O)c2[nH]cnc21` [IBMX, reference compound], for which the “Change of melanin content / pigmentation, in words” value runs as follows: under setting [1], “significant increase”; under setting [2], “significant increase”. Further, the “Quantification after Fontana-Masson staining, relative to the untreated controls” value by setting is: (first experiment, IBMX 100 μM, positive reference, day 4 to day 14) 152% (p < 0.05); (second experiment, IBMX 100 μM, positive reference) 150% (p < 0.01).

In the case of `Cc1cc(=O)c2c(O)cc(O[C@@H]3O[C@@H](C)[C@H](O)[C@@H](O)[C@H]3O)cc2o1` [Substance (Ib), 7-[(6-deoxy-α-L-mannopyranosyl)oxy]-5-hydroxy-2-methyl-4H-1-benzopyran-4-one], the “Quantification after Fontana-Masson staining, relative to the untreated controls” value by setting is: (first experiment, 40 μM, solvent 0.1% THF, day 4 to day 14) 174% (p < 0.05); (second experiment, 40 μM in DMSO (0.1%)) 167% (p < 0.01). Also, the “Change of melanin content / pigmentation, in words” value under setting [1] is “significant increase” and the “Change of melanin content / pigmentation, in words” value under setting [2] is “significant increase”.

As for `C[C@H](O)[C@H](O)[C@@H](O)[C@@H](O)C=O` [Rhamnose, rhamnose, reference compound], for the setting “second experiment, 40 μM in THF (0.2%)”, the “Quantification after Fontana-Masson staining, relative to the untreated controls” value amounted to 109%. For the same compound, the “Change of melanin content / pigmentation, in words” value under setting [2] is “tendency to increase melanin synthesis is only faintly pronounced”.

On to `Cc1cc(=O)c2c(O)cc(O[C@@H]3O[C@H](CO)[C@@H](O)[C@H](O)[C@H]3O)cc2o1` [Substance (Ia), 7-(β-D-glucopyranosyloxy)-5-hydroxy-2-methyl-4H-1-benzopyran-4-one], for which the “Quantification after Fontana-Masson staining, relative to the untreated controls” value (first experiment, 8 μM, day 4 to day 14) amounted to 125%. The “Change of melanin content / pigmentation, in words” value under setting [1] was “unambiguous tendency to increase pigmentation”.
